Patent publication US20060258729A1, “Antibacterial pyrazole carboxylic acid hydrazides” (priority 2002, published 2006)
In brackets after ≈: the same amount, converted by molar mass.

Legend:
B. subtilis pol IIIE [1] = biological target: T1, B. subtilis pol IIIE (Bacillus subtilis, UniProt O34623); test: DNA polymerase assay, B. subtilis pol IIIE; format: biochemical; details: for inhibition at 80 µg/mL / Percent Enzymatic Inhibition B. subtilis pol IIIE: 80 μg/mL (190-260 μM) final concentration, all four dNTPs; for inhibition at 80 µg/mL: read-out: Percent Enzymatic Inhibition B. subtilis pol IIIE
T1 construct: made in house
Experimental: (§1) Recombinant, purified pol IIIC and pol IIIE from Bacillus subtilis were obtained using known methods (Hammond et al., Gene 98: 29-36 (1991), regarding pol IIIC; Barnes et al., J. Bacteriol. 184, 3834-3838 (2002), regarding pol IIIE). Recombinant, purified pol IIIE from Escherichia coli was obtained from a commercial source (Enzyco, Denver, Colo.). The enzyme assays were performed in 96-well plate format using the same assay mix for all three enzymes. Each 25 μL assay contained 30 mM Tris, pH 7.5, 10 mM magnesium acetate, 4 mM dithiothreitol, 20% glycerol, with 10 μM dATP, dCTP, dGTP and dTTP (3H-labelled at 1.44 Ci/mmole) and 0.4 mg/mL activated calf thymus DNA as substrates. Dilutions of compounds were added to the plate in 1% DMSO (1 μL/well). Assays were initiated by the addition of 0.025 to 0.06 units of enzyme (1 unit is the amount required to incorporate 250 pmoles of [^3H] dTMP in a standard assay), incubated for 10 min at 30° C. and terminated by the addition of 200 μL of cold 10% trichloroacetic acid, 10 mM sodium pyrophosphate. Precipitated labeled DNA was collected on glass fiber filter plates that had been pre-wet with ice cold 1 M HCl, 100 mM sodium pyrophosphate. The plates were washed with the HCl solution followed by ice cold 90% ethanol and then dried and counted in a liquid scintillation counter. The calculated IC50 is the concentration needed to inhibit 50% of the DNA polymerase activity in the presence of all four dNTP substrates. In addition, percent inhibition values are calculated as the percent reduction in the activity of a DMSO (diluent) control.

[2] = system: E. faecium clinical isolate; test: Inhibition of bacterial growth (MIC), Efcm; format: cell-based; details: 16 to 18 hours, 37° C.; for MIC: Enterococcus faecium, read-out: Minimum Inhibitory Concentration for Bacterial Growth, Efcm
Experimental: (§2) Each compound was assayed against a panel of a strain of Bacillus subtilis, of strains of antibiotic-resistant and sensitive Enterococcus and Staphylococcus species, and of a strain of the Gram-negative bacterium Escherichia coli. Compounds were dissolved in DMSO at 100× the desired highest concentration and added to one well of a 96-well microassay plate. Two-fold serial drug dilutions were made across the plate in DMSO to yield 11 concentrations (usually 80-0.078 μg/mL) plus an untreated control. Drugs were then transferred to fresh plates using 1.5 μL per well. Log phase cultures were diluted to yield a concentration of 1×10^5 colony forming units/mL in either LB or BHI medium and transferred to the plates containing drug for a final volume of 150 μL. Each well, including the DMSO controls, contained a final concentration of 1% DMSO. Plates were incubated with shaking at 37° C. for 16 to 18 hours. Cell growth was determined by measuring optical density (570 nm, 1 cm path length) in a microplate reader. MIC (minimum inhibitory concentration) is equivalent to the lowest concentration at which growth is not observed. The bacterial strains and MIC determinations have been well characterized and are described elsewhere (Tarantino et al., Antimicrob. Agents Chemother., 43: 1982-1987 (1999); Daly et al., Antimicrob. Agents Chemother., 44: 2217-2221 (2000)).

E. coli pol IIIE = biological target: T2, E. coli pol IIIE (Escherichia coli, UniProt P10443); test: DNA polymerase assay, E. coli pol IIIE; format: biochemical; details: 80 μg/mL (190-260 μM) final concentration, all four dNTPs
T2 construct: purchased Enzyco, Denver, Colo
Experimental: as §1

[3] = system: Escherichia coli strain J53; test: Inhibition of bacterial growth (MIC), Ec; format: cell-based; details: 16 to 18 hours, 37° C.; for MIC: read-out: Minimum Inhibitory Concentration for Bacterial Growth, Ec
Experimental: as §2

[4] = system: Bacillus subtilis strain BD54; test: Inhibition of bacterial growth (MIC), Bs; format: cell-based; details: 16 to 18 hours, 37° C.; for MIC: read-out: Minimum Inhibitory Concentration for Bacterial Growth, Bs
Experimental: as §2

B. subtilis pol IIIC = biological target: T3, B. subtilis pol IIIC (Bacillus subtilis, UniProt P13267); test: DNA polymerase assay, B. subtilis pol IIIC; format: biochemical; details: for inhibition at 80 µg/mL / Percent Enzymatic Inhibition B. subtilis pol IIIC: 80 μg/mL (190-260 μM) final concentration, all four dNTPs; for inhibition at 80 µg/mL: read-out: Percent Enzymatic Inhibition B. subtilis pol IIIC; for B. subtilis Pol IIIC IC50, 4 dNTPs: in the presence of all four dNTP substrates
T3 construct: made in house
Experimental: as §1, with “Each 25 μL assay contained 30 mM Tris, pH 7.5, 10 mM magnesium acetate, 4 mM dithiothreitol, 20% glycerol, with 10 μM dATP, dCTP, dGTP and dTTP (3H-labelled at 1.44 Ci/mmole) and 0.4 mg/mL activated calf thymus DNA as substrates.” left out, “The calculated IC50 is the concentration needed to inhibit 50% of the DNA polymerase activity in the presence of all four dNTP substrates.” left out

[5] = system: vancomycin-resistant Enterococcus strain B42762; test: Inhibition of bacterial growth (MIC), VRE; format: cell-based; details: 16 to 18 hours, 37° C.; for MIC: VRE, read-out: Minimum Inhibitory Concentration for Bacterial Growth, VRE
Experimental: as §2

B. subtilis pol IIIE [6] = biological target: T1, B. subtilis pol IIIE; test: DNA polymerase assay, B. subtilis pol IIIE; format: biochemical
[7] = system: Enterococcus faecalis strain 29212; test: Inhibition of bacterial growth (MIC), Efcl; format: cell-based; details: 16 to 18 hours, 37° C.; for MIC: read-out: Minimum Inhibitory Concentration for Bacterial Growth, Efcl
Experimental: as §2

S. aureus Smith strain = test: Inhibition of bacterial growth (MIC), Sm; format: cell-based, Staphylococcus aureus; details: 16 to 18 hours, 37° C.; for MIC: Staphylococcus aureus, read-out: Minimum Inhibitory Concentration for Bacterial Growth, Sm
Experimental: as §2

[8] = system: methicillin-resistant S. aureus strain 1094; test: Inhibition of bacterial growth (MIC), MRSA; format: cell-based, Staphylococcus aureus; details: 16 to 18 hours, 37° C.; for MIC: Staphylococcus aureus, MRSA, read-out: Minimum Inhibitory Concentration for Bacterial Growth, MRSA
Experimental: as §2

[9] = system: Staphylococcus aureus strain IP 8; test: Inhibition of bacterial growth (MIC), Sa; format: cell-based; details: 37° C.; for MIC: IP8, 16 to 18 hours, read-out: Minimum Inhibitory Concentration for Bacterial Growth, Sa; for Minimum Inhibitory Concentration for Bacterial Growth, Sa: 16 to 18 hours
Experimental: as §2

[10] = in the presence of all four dNTP substrates
[11] = B. subtilis Pol IIIC IC50, −dATP, in the absence of dATP
[12] = B. subtilis Pol IIIC IC50, −dCTP, in the absence of dCTP
[13] = B. subtilis Pol IIIC IC50, −dGTP, in the absence of dGTP
[14] = B. subtilis Pol IIIE IC50, −dATP, in the absence of dATP
[15] = B. subtilis Pol IIIE IC50, −dCTP, in the absence of dCTP
[16] = B. subtilis Pol IIIE IC50, −dGTP, in the absence of dGTP

T3 sequence (P13267 whole entry): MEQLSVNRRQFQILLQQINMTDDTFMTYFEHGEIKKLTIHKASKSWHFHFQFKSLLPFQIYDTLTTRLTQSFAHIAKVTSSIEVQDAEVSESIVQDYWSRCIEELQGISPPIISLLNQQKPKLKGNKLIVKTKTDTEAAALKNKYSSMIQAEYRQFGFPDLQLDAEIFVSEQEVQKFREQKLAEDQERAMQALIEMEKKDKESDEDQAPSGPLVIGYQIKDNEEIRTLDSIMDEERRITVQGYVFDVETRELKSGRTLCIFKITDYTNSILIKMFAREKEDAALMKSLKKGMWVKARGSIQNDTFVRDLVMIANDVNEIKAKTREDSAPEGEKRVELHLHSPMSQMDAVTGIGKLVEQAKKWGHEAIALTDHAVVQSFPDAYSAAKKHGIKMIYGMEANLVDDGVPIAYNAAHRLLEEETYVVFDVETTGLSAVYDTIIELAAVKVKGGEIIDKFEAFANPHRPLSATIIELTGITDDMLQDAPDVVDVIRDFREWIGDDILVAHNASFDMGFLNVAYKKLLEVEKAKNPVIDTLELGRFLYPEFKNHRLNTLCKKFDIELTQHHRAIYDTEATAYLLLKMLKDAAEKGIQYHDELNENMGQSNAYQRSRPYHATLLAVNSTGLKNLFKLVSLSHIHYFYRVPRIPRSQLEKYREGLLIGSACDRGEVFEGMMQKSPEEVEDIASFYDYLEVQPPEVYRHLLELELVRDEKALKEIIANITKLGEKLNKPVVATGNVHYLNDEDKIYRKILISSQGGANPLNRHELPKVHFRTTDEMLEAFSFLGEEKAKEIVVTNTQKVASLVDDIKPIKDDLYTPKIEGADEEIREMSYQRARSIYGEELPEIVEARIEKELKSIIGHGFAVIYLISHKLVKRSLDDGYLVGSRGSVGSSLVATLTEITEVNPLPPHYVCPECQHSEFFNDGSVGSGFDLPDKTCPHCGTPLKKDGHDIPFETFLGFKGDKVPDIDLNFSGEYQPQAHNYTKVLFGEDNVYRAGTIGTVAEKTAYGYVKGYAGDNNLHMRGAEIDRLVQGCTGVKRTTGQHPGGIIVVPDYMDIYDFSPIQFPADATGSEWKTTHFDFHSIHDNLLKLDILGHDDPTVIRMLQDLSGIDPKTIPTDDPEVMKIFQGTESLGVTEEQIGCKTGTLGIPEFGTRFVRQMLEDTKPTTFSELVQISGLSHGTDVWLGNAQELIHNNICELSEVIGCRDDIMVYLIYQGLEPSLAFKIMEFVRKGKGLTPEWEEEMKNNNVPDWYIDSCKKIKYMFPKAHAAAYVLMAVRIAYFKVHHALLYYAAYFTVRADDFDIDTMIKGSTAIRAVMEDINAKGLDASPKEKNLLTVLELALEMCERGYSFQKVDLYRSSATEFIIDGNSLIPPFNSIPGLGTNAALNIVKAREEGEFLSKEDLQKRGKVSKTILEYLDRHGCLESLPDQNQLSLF
T1 sequence (O34623 whole entry): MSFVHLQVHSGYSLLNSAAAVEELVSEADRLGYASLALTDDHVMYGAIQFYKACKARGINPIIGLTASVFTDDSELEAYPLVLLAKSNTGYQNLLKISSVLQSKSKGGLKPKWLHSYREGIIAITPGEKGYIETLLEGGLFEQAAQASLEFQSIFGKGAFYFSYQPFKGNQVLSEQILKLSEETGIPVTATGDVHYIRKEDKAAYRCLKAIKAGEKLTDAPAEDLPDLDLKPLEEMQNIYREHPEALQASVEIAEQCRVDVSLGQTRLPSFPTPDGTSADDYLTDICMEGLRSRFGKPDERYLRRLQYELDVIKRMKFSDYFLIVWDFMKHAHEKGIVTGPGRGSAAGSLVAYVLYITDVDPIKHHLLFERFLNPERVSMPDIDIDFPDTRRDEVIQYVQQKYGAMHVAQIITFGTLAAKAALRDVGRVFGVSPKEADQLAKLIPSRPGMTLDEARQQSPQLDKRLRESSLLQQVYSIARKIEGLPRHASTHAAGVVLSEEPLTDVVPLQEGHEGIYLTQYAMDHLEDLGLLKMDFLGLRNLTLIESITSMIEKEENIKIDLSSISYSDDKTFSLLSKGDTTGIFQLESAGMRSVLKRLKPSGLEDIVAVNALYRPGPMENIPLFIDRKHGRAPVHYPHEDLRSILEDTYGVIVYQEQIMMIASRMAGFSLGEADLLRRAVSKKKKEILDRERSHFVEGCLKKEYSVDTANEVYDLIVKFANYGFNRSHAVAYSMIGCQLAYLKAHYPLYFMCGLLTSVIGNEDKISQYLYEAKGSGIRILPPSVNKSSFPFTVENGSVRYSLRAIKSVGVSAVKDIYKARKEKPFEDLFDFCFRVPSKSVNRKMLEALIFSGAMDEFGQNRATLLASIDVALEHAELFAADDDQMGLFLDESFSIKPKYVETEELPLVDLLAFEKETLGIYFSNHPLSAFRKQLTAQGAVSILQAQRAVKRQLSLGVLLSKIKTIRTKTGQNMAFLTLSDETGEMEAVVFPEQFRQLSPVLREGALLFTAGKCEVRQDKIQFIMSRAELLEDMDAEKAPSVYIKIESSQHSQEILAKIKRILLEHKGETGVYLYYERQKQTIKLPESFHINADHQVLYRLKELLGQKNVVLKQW
T2 sequence (P10443 whole entry): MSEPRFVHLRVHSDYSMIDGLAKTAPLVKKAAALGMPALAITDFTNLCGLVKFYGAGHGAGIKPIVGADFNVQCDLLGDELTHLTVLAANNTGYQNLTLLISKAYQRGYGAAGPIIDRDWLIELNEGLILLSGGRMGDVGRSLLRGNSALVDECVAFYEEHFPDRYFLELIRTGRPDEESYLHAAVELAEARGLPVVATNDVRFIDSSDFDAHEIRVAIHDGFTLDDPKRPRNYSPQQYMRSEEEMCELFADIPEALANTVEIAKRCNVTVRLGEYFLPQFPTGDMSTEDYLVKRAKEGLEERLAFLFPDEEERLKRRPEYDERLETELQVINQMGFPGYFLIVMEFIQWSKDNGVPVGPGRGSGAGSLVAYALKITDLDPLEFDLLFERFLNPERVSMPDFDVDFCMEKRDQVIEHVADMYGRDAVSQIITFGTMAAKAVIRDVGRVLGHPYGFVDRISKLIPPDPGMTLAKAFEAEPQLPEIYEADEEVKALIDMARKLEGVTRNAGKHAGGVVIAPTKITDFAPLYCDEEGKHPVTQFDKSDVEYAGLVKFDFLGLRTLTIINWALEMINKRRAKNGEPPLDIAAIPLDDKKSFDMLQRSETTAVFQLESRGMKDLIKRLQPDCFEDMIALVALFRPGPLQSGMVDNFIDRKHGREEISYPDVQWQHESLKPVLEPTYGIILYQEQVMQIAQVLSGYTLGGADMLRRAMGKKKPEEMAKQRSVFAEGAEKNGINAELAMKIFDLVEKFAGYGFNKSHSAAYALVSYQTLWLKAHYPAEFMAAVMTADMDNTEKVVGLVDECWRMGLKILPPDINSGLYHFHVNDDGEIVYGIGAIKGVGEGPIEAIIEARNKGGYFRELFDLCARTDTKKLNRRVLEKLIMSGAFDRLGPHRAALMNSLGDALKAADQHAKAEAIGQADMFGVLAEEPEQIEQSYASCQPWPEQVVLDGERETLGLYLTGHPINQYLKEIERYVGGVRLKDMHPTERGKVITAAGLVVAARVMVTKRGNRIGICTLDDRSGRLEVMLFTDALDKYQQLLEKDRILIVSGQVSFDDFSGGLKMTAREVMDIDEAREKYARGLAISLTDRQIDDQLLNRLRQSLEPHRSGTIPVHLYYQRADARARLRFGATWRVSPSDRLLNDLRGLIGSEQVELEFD

| SMILES | inhibition at 80 µg/mL (B. subtilis pol IIIE [1]) | B. subtilis Pol IIIE IC50, 4 dNTPs (B. subtilis pol IIIE [1]; [10]) | MIC [2] | Percent Enzymatic Inhibition E. coli pol IIIE (E. coli pol IIIE) | MIC [3] | MIC [4] | inhibition at 80 µg/mL (B. subtilis pol IIIC) | IC50 (B. subtilis pol IIIC; [11]) | IC50 (B. subtilis pol IIIC; [12]) | IC50 (B. subtilis pol IIIC; [13]) | B. subtilis Pol IIIC IC50, 4 dNTPs (B. subtilis pol IIIC) | MIC [5] | IC50 (B. subtilis pol IIIE [6]; [14]) | IC50 (B. subtilis pol IIIE [6]; [15]) | IC50 (B. subtilis pol IIIE [6]; [16]) | MIC [7] | MIC (S. aureus Smith strain) | MIC [8] | MIC [9] | Percent Enzymatic Inhibition B. subtilis pol IIIC (B. subtilis pol IIIC) | further results |
| --- | --- | --- | --- | --- | --- | --- | --- | --- | --- | --- | --- | --- | --- | --- | --- | --- | --- | --- | --- | --- | --- |
| COc1ccc(-c2cc(C(=O)NN=Cc3ccc(O)cc3)[nH]n2)cc1 [Compound 16] | > 20% | Inactive | > 80 µg/mL | Inactive | > 80 µg/mL | > 80 µg/mL | 9.9% | 89 µM | 96 µM | 60 µM | Inactive | 80 µg/mL (≈ 238 µM) | 117 µM | 156 µM | 318 µM | > 80 µg/mL | > 80 µg/mL | > 80 µg/mL | > 80 µg/mL |  |  |
| CCOc1cc(C=NNC(=O)c2cc(-c3cccc(OC)c3)n[nH]2)ccc1O [Compound 3] | > 20% | Inactive | 80 µg/mL (≈ 210 µM) | Inactive | > 80 µg/mL | > 80 µg/mL | 5.3% | 141 µM | 563 µM | 301 µM | Inactive | 40 µg/mL (≈ 105 µM) | 124 µM | 222 µM | 311 µM | 80 µg/mL (≈ 210 µM) | 40 µg/mL (≈ 105 µM) | 40 µg/mL (≈ 105 µM) | 20 µg/mL (≈ 52.6 µM) |  |  |
| COc1cccc(-c2cc(C(=O)NN=Cc3ccc(OC)c(OC)c3)[nH]n2)c1 [Compound 2] | > 20% |  | 60 µg/mL (≈ 158 µM) |  | > 80 µg/mL | 20 µg/mL (≈ 52.6 µM) |  | 99 µM | 287 µM | 406 µM | Inactive | 40 µg/mL (≈ 105 µM) | 57 µM | 104 µM | 78 µM | 40 µg/mL (≈ 105 µM) | 20 µg/mL (≈ 52.6 µM) | 20 µg/mL (≈ 52.6 µM) | 10 µg/mL (≈ 26.3 µM) | Inactive | IC50 (B. subtilis pol IIIE [1]; B. subtilis Pol IIIE IC50, 4 dNTPs, in the presence of all four dNTP substrates): 604 µM; inhibition at 80 µg/mL (E. coli pol IIIE; read-out: Percent Enzymatic Inhibition E. coli pol IIIE): 1.7% |
| CCCCc1cc(C=NNC(=O)c2cc(-c3ccccc3)n[nH]2)cc(CCCC)c1O [Compound 12] |  |  |  | 7.2% |  |  |  |  |  |  |  |  |  |  |  |  |  |  |  | Inactive | Percent Enzymatic Inhibition B. subtilis pol IIIE (B. subtilis pol IIIE [1]): 7.6%; Minimum Inhibitory Concentration for Bacterial Growth, Efcm [2]: >80 µg/mL; Minimum Inhibitory Concentration for Bacterial Growth, Ec [3]: >80 µg/mL; Minimum Inhibitory Concentration for Bacterial Growth, Bs [4]: >80 µg/mL; Minimum Inhibitory Concentration for Bacterial Growth, VRE [5]: >80 µg/mL; Minimum Inhibitory Concentration for Bacterial Growth, Efcl [7]: >80 µg/mL; Minimum Inhibitory Concentration for Bacterial Growth, Sm (S. aureus Smith strain): >80 µg/mL; Minimum Inhibitory Concentration for Bacterial Growth, MRSA [8]: >80 µg/mL; Minimum Inhibitory Concentration for Bacterial Growth, Sa [9]: >80 µg/mL |
| COc1ccc(-c2cc(C(=O)NN=Cc3ccccc3)[nH]n2)cc1 [Compound 13] |  |  |  | 3.4% |  |  |  |  |  |  |  |  |  |  |  |  |  |  |  | 2.9% | Percent Enzymatic Inhibition B. subtilis pol IIIE (B. subtilis pol IIIE [1]): Inactive; Minimum Inhibitory Concentration for Bacterial Growth, Efcm [2]: >80 µg/mL; Minimum Inhibitory Concentration for Bacterial Growth, Ec [3]: >80 µg/mL; Minimum Inhibitory Concentration for Bacterial Growth, Bs [4]: >80 µg/mL; Minimum Inhibitory Concentration for Bacterial Growth, VRE [5]: >80 µg/mL; Minimum Inhibitory Concentration for Bacterial Growth, Efcl [7]: >80 µg/mL; Minimum Inhibitory Concentration for Bacterial Growth, Sm (S. aureus Smith strain): >80 µg/mL; Minimum Inhibitory Concentration for Bacterial Growth, MRSA [8]: >80 µg/mL; Minimum Inhibitory Concentration for Bacterial Growth, Sa [9]: >80 µg/mL |
